{"source": "patent US20250057823A1", "about": "“COMPOSITION FOR IMPROVING CARDIAC FUNCTION” (Kyoto University, priority 2021, published 2025)", "key": {"[1]": {"test_system": "mouse models of pressure overload-induced cardiac hypertrophy/heart failure (TAC)", "assay": "Mouse models of TAC heart failure during cardiac hypertrophic phase", "type": "in vivo", "method": "Transverse aortic constriction (TAC) was performed as described previously [Date, et al. (2002) The antioxidant N-2-mercaptopropionyl glycine attenuates left ventricular hypertrophy in in vivo murine pressure-overload model. J Am Coll Cardiol 39: 907-912.]. Briefly, 8- to 10-week-old mice were anesthetized with anesthetic (0.3 mg/kg of medetomidine, 4.0 mg/kg of midazolam, and 5.0 mg/kg of butorphanol) administered intraperitoneally, and the proximal portion of the sternum was cut open to visualize the aorta. A 7-0 silk suture was placed around the aortic arch distal to the brachiocephalic artery. The suture was tightened firmly around a blunt 26-gauge needle placed adjacent to the aorta. The needle was then removed, and the chest and overlying skin were closed. Sham-operated mice underwent an identical surgical procedure without ligation of the aortic arch. At the end of the operation, 0.3 mg/kg of atipamezole was administered subcutaneously to reverse medetomidine. FIG. 1 is a schematic diagram of TAC.\nTotal RNA was reverse transcribed by blend primer of random hexamers and oligo-dT 3:1 (volume/volume) using Verso™ cDNA Synthesis Kit (Thermo Fisher Scientific, AB1453A) in accordance with the manufacturer's protocol, and the cDNA was analyzed by qRT-PCR. qRT-PCR measurements used THUNDERBIRD SYBR qPCR Mix (TOYOBO) in accordance with the manufacturer's instructions. Expression levels of messenger RNAs (mRNAs) were normalized by the indicated housekeeping genes, and calculated by the 2^−ΔΔCt method. All analyses were performed using a StepOnePlus real-time PCR system and StepOne Software v2.3 (Applied Biosystems, Inc).\nWheat Germ Agglutinin (WGA) Staining and the Quantification Paraffin-embedded ventricular short-axis sections were stained with FITC-conjugated lectin (Sigma, L4895). Images were captured by Axio Observer7 (Zeiss). Cardiomyocyte cross-sectional area measurement was performed using ImageJ64 software (NIH). Approximately 150-200 cells were measured per heart, and averages were used for the analysis.\nTo analyze the cardiac function, we used Vevo® 2100 (VISUALSONICS) at the indicated time points after TAC operation. Mice were kept under inhalation anesthesia with 2.5% isoflurane. LV function was measured in M mode of the parasternal short-axis view.\nMouse models of pressure overload-induced cardiac hypertrophy/heart failure were prepared by TAC and were injected intraperitoneally with 50 mg/kg of KUS121 daily for 2 weeks starting immediately after TAC. Sham-operated mice and control mice were injected with 5% glucose. Two weeks after TAC, echocardiography was performed, then the mice were sacrificed, the body weight and heart weight were measured, and heart samples were collected."}, "[2]": {"test_system": "beagle dog models of heart failure", "assay": "Beagle dog models of rapid ventricular pacing-induced heart failure", "type": "in vivo", "method": "After induction of general anesthesia with thiopental sodium (20 mg/kg, i.v.: 0.5 g of Labonal injection, Nipro ES Pharma Corporation) in 10- to 12-month-old male beagle dogs (9.80-11.50 kg), a tracheal cannula was inserted into the airway, and artificial respiration was performed with an Acoma veterinary ventilator (PRO-45Va, Acoma Medical Corporation). Anesthesia was maintained by inhalation of a gas mixture (Air:O2=3:0.2) and 1.0 to 2.5% isoflurane (isoflurane inhalation solution “Pfizer”, Mylan Seiyaku Co., Ltd.) using an Acoma animal anesthesia machine (NS-5000A, Acoma Medical Industry Co., Ltd.) to maintain a constant depth of anesthesia. An incision was made in the right side of the neck of the animal, an animal internal cardiac pacemaker (SIP-501, Star Medical Corporation) was implanted subcutaneously, a retractable screw-in reed (Tendril STS J, St. Jude Medical, Inc.) was inserted through the right jugular vein under X-ray fluoroscopy (BV Pulsera, Koninklijke Philips N.V.), and the tip was implanted in the right ventricular wall. Pacing was started at 244-251 beats/min on postoperative day 1. Dogs with ejection fraction (EF) decreasing to 30-50% at 4 weeks after pacemaker activation were considered to have heart failure and subjected to analysis.\nEchocardiography was performed using a general-purpose ultrasound imaging system (Vivid S6, GE Medical Systems). The left ventricular end-diastolic diameter (LVIDd), left ventricular end-systolic diameter (LVIDs), ejection fraction (EF), and left ventricular internal diameter shortening (% FS) were measured in M-mode by placing a sector probe (10 MHz) on the chest.\nDogs were anesthetized intravenously with 14.5 to 22.3 mg/kg of secobarbital sodium (Injectable Ionar sodium (0.2), Nichi-Iko Co., Ltd.), followed by subcutaneous administration of 0.2 mg/kg of meloxicam (Metacam 0.5% injection, Boehringer Ingelheim Animal Health Japan Co.). A tracheal tube was inserted into the airway and connected to an Acoma animal ventilator (PRO-45Va, Acoma Medical Industry Co., Ltd.). The ventilator was set at a respiratory rate of 14-18 strokes/min and a tidal volume of 10-20 mL/kg/stroke, and respiration was controlled by an Acoma animal anesthesia machine (NS-5000A, Acoma Medical Industry Co., Ltd.) using a gas mixture (FiO2=0.3-1.0). The exhaled CO2 partial pressure was monitored using an exhaled carbon dioxide monitor (OLG-2800, Nihon Kohden Corporation). The animals were fixed in the dorsal position and the thighs and neck were shom. Anesthesia was maintained by continuous intravenous infusion of sodium secobarbital (5 mg/kg/hr) through the radial cutaneous vein using a Telfusion syringe pump (STC-523, Terumo Corporation). A Swan-Ganz catheter was inserted through the left femoral vein. A catheter for coronary angiography was inserted through the left femoral artery. A 5F sheath for arterial blood sampling was placed in the right femoral artery. A catheter for PV-loop analysis was inserted from the left internal carotid artery. An 8F occlusion balloon was placed from the right femoral vein for occlusion testing. In addition, KUS121 was administered from the left common jugular vein.\nBeagle dog models of heart failure were prepared by rapid ventricular pacing. Cardiac function was assessed by echocardiography before KUS121 administration and after continuous infusion at 40 mg/h. KUS121 increased LVEF, even if it was based on either of the Teichholz method and the modified-Simpson's method, and increased % FS (FIG. 18). Changes in heart rate, systolic blood pressure, diastolic blood pressure, left ventricular ejection fraction, mean pulmonary artery pressure, pulmonary capillary wedge pressure, left ventricular end-diastolic pressure, and adjusted dp/dt are shown in FIGS. 19 to 21. […]"}, "[3]": {"conditions": "TAC mice, 50 mg/kg i.p. daily for 2 weeks starting immediately after TAC"}, "[4]": {"conditions": "echocardiography two weeks after TAC, 50 mg/kg i.p. daily"}, "[5]": {"conditions": "heart tissue, qRT-PCR, 50 mg/kg i.p. daily for 2 weeks after TAC"}, "[6]": {"conditions": "echocardiography, before vs after continuous infusion at 40 mg/h"}, "[7]": {"conditions": "infusion per FIG. 17 protocol, cardiac catheterization"}}, "note": "Where a name gives a salt, the structure may show the parent alone.", "data": [{"molecule": "Cc1cc(F)ccc1-c1ccc(/N=N/c2cc(S(=O)(=O)O)c3ccccc3c2N)cn1", "note": "[KUS121, 4-amino-3-[6-(4-fluoro-2-methylphenyl)pyridine-3-ylazo]naphthalene-1-sulfonic acid sodium salt]", "values": [{"measurement": "cardiomyocyte cross-sectional area (WGA staining)", "setting": "[1]; [3]", "value": "suppressed the increase"}, {"measurement": "heart weight", "setting": "[1]; [3]", "value": "suppressed the increases"}, {"measurement": "ratio of heart weight to body weight", "setting": "[1]; [3]", "value": "suppressed the increases"}, {"measurement": "interventricular septum diameter at end-diastole (IVSd)", "setting": "[1]; [4]", "value": "suppressed both"}, {"measurement": "left ventricular ejection fraction (LVEF)", "setting": "[1]; [4]", "value": "did not significantly suppress the decrease"}, {"measurement": "left ventricular mass", "setting": "[1]; [4]", "value": "suppressed both"}, {"measurement": "mRNA levels of cardiac hypertrophy markers (BNP and ANF)", "setting": "[1]; [5]", "value": "suppressed the increases"}, {"measurement": "mRNA levels of endoplasmic reticulum stress markers (Bip, CHOP, and VCP)", "setting": "[1]; [5]", "value": "not significantly affected"}, {"measurement": "liver and kidney functions", "setting": "[2]; blood samples collected during acute phase", "value": "remained normal"}, {"measurement": "% FS (fractional shortening in left ventricle)", "setting": "[2]; [6]", "value": "increased"}, {"measurement": "LVEF based on the Teichholz method", "setting": "[2]; [6]", "value": "increased"}, {"measurement": "LVEF based on the modified-Simpson's method", "setting": "[2]; [6]", "value": "increased"}, {"measurement": "heart rate", "setting": "[2]; infusion per FIG. 17 protocol", "value": "without affecting"}, {"measurement": "left ventricular diastolic function", "setting": "[2]; infusion per FIG. 17 protocol", "value": "improved"}, {"measurement": "left ventricular systolic function", "setting": "[2]; infusion per FIG. 17 protocol", "value": "improved"}, {"measurement": "systolic blood pressure", "setting": "[2]; infusion per FIG. 17 protocol", "value": "without affecting"}, {"measurement": "pulmonary artery pressure", "setting": "[2]; [7]", "value": "lowered"}, {"measurement": "pulmonary capillary wedge pressure", "setting": "[2]; [7]", "value": "lowered"}]}]}
